The supplement of paper PMC10307832

Columns and labels:
Assay in all cases: relative viability (nuclei count vs DMSO), 5 days (fraction); higher = more cells survive
[1] = system: NCI-H3122
In short: (§1)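 A single step with final 0.05% Triton X-100, 1% formaldehyde and 1 ug/ml Hoechst fixed the cells and stained nuclei 5 days after treatment. Lung cancer cell lines in 1536-well plates had been treated by pin tool the day after seeding with one drug alone or a fixed anchor-drug dose plus five library-drug doses (not always all listed) in √10 steps, and nuclei were counted on 4× images. Relative viability is the ratio of nuclei in treated wells to nuclei in vehicle wells, taken as the median of duplicate plates.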

[2] = system: NCI-H2228
In short: as §1

[3] = system: NCI-H322M
In short: as §1

[4] = system: CAL-12T
In short: as §1

[5] = system: SK-LU-1
In short: as §1

[6] = system: LCLC-97TM1
In short: as §1

[7] = system: LCLC-103H
In short: as §1

[8] = system: HCC-44
In short: as §1

[9] = system: NCI-H1793
In short: as §1

[10] = system: NCI-H2087
In short: as §1

[11] = system: NCI-H647
In short: as §1

[12] = system: 201T
In short: as §1

[13] = system: RERF-LC-KJ
In short: as §1

[14] = system: LXF-289
In short: as §1

[15] = system: HCC-827
In short: as §1

[16] = system: NCI-H1650
In short: as §1

[17] = system: NCI-H1437
In short: as §1

[18] = system: NCI-H727
In short: as §1

[19] = system: BEN
In short: as §1

[20] = system: NCI-H1395
In short: as §1

[21] = system: NCI-H1944
In short: as §1

[22] = system: NCI-H2405
In short: as §1

[23] = system: HOP-62
In short: as §1

O=C(O)c1ccc(-c2c[nH]c3ncc(-c4ccccc4)cc23)cc1C1CCCC1 + CCNC(=O)c1noc(-c2cc(C(C)C)c(O)cc2O)c1-c1ccc(CN2CCOCC2)cc1 [Luminespib] (partner 0.01 µM)
relative viability ([1]; first compound 0.04 µM): 0.0905
relative viability ([1]; first compound 0.1265 µM): 0.0913
relative viability ([1]; first compound 0.4 µM): 0.0809
relative viability ([1]; first compound 1.265 µM): 0.0888
relative viability ([2]; first compound 0.04 µM): 0.144
relative viability ([2]; first compound 0.1265 µM): 0.188
relative viability ([2]; first compound 0.4 µM): 0.0961
relative viability ([2]; first compound 1.265 µM): 0.0961
relative viability ([3]; first compound 0.04 µM): 0.901
relative viability ([3]; first compound 0.1265 µM): 0.934
relative viability ([3]; first compound 0.4 µM): 0.846
relative viability ([3]; first compound 1.265 µM): 0.664
relative viability ([4]; first compound 0.04 µM): 0.57
relative viability ([4]; first compound 0.1265 µM): 0.354
relative viability ([4]; first compound 0.4 µM): 0.519
relative viability ([4]; first compound 1.265 µM): 0.268
relative viability ([5]; first compound 0.04 µM): 0.204
relative viability ([5]; first compound 0.1265 µM): 0.196
relative viability ([5]; first compound 0.4 µM): 0.231
relative viability ([5]; first compound 1.265 µM): 0.179
relative viability ([6]; first compound 0.04 µM): 0.858
relative viability ([6]; first compound 0.1265 µM): 0.82
relative viability ([6]; first compound 0.4 µM): 0.633
relative viability ([6]; first compound 1.265 µM): 0.5
relative viability ([7]; first compound 0.04 µM): 1.08
relative viability ([7]; first compound 0.1265 µM): 1.05
relative viability ([7]; first compound 0.4 µM): 0.84
relative viability ([7]; first compound 1.265 µM): 0.713
relative viability ([8]; first compound 0.04 µM): 1.08
relative viability ([8]; first compound 0.1265 µM): 1.44
relative viability ([8]; first compound 0.4 µM): 0.868
relative viability ([8]; first compound 1.265 µM): 0.448
relative viability ([9]; first compound 0.04 µM): 0.19
relative viability ([9]; first compound 0.1265 µM): 0.166
relative viability ([9]; first compound 0.4 µM): 0.151
relative viability ([9]; first compound 1.265 µM): 0.148
relative viability ([10]; first compound 0.04 µM): 0.182
relative viability ([10]; first compound 0.1265 µM): 0.192
relative viability ([10]; first compound 0.4 µM): 0.221
relative viability ([10]; first compound 1.265 µM): 0.164
relative viability ([11]; first compound 0.04 µM): 0.148
relative viability ([11]; first compound 0.1265 µM): 0.152
relative viability ([11]; first compound 0.4 µM): 0.18
relative viability ([11]; first compound 1.265 µM): 0.16
relative viability ([12]; first compound 0.04 µM): 1.08
relative viability ([12]; first compound 0.1265 µM): 1.04
relative viability ([12]; first compound 0.4 µM): 1.07
relative viability ([12]; first compound 1.265 µM): 0.987
relative viability ([13]; first compound 0.04 µM): 1.32
relative viability ([13]; first compound 0.1265 µM): 1.19
relative viability ([13]; first compound 0.4 µM): 1.1
relative viability ([13]; first compound 1.265 µM): 0.645
relative viability ([14]; first compound 0.04 µM): 0.749
relative viability ([14]; first compound 0.1265 µM): 0.614
relative viability ([14]; first compound 0.4 µM): 0.484
relative viability ([14]; first compound 1.265 µM): 0.171
relative viability ([15]; first compound 0.04 µM): 0.602
relative viability ([15]; first compound 0.1265 µM): 0.793
relative viability ([15]; first compound 0.4 µM): 0.413
relative viability ([15]; first compound 1.265 µM): 0.485
relative viability ([16]; first compound 0.04 µM): 0.194
relative viability ([16]; first compound 0.1265 µM): 0.17
relative viability ([16]; first compound 0.4 µM): 0.196
relative viability ([16]; first compound 1.265 µM): 0.197
relative viability ([17]; first compound 0.04 µM): 1.09
relative viability ([17]; first compound 0.1265 µM): 1.07
relative viability ([17]; first compound 0.4 µM): 0.925
relative viability ([17]; first compound 1.265 µM): 0.603
relative viability ([18]; first compound 0.04 µM): 0.325
relative viability ([18]; first compound 0.1265 µM): 0.41
relative viability ([18]; first compound 0.4 µM): 0.638
relative viability ([18]; first compound 1.265 µM): 0.281
relative viability ([19]; first compound 0.04 µM): 0.569
relative viability ([19]; first compound 0.1265 µM): 0.32
relative viability ([19]; first compound 0.4 µM): 0.284
relative viability ([19]; first compound 1.265 µM): 0.306
relative viability ([20]; first compound 0.04 µM): 0.726
relative viability ([20]; first compound 0.1265 µM): 0.636
relative viability ([20]; first compound 0.4 µM): 0.534
relative viability ([20]; first compound 1.265 µM): 0.606
relative viability ([21]; first compound 0.04 µM): 0.687
relative viability ([21]; first compound 0.1265 µM): 0.836
relative viability ([21]; first compound 0.4 µM): 0.716
relative viability ([21]; first compound 1.265 µM): 0.702
relative viability ([22]; first compound 0.04 µM): 0.778
relative viability ([22]; first compound 0.1265 µM): 0.831
relative viability ([22]; first compound 0.4 µM): 0.579
relative viability ([22]; first compound 1.265 µM): 0.535
relative viability ([23]; first compound 0.04 µM): 0.989
relative viability ([23]; first compound 0.1265 µM): 0.997
relative viability ([23]; first compound 0.4 µM): 0.86
relative viability ([23]; first compound 1.265 µM): 0.737
